Experimental findings from paper PMC7801526, “Cryo-EM structure of Helicobacter pylori urease with an inhibitor in the active site at 2.0 Å resolution” (Nature Communications, 2021) are described below.

The structures appear in SMILES notation.

Assay [1] deals with T1, urease, catalytic subunit UreB (Helicobacter pylori, UniProt P69996).
T1 construct: with UreA
In words: cryo-EM structure at […] Å; phenol red assay on purified urease (IC50 […], Ki by Cheng-Prusoff). It counts as biochemical.

Assay [2] concerns the target T1, urease, catalytic subunit UreB. Briefly: phenol red assay on purified urease (IC50 […], Ki by Cheng-Prusoff). It is filed as biochemical.

T1 sequence (P69996 whole entry): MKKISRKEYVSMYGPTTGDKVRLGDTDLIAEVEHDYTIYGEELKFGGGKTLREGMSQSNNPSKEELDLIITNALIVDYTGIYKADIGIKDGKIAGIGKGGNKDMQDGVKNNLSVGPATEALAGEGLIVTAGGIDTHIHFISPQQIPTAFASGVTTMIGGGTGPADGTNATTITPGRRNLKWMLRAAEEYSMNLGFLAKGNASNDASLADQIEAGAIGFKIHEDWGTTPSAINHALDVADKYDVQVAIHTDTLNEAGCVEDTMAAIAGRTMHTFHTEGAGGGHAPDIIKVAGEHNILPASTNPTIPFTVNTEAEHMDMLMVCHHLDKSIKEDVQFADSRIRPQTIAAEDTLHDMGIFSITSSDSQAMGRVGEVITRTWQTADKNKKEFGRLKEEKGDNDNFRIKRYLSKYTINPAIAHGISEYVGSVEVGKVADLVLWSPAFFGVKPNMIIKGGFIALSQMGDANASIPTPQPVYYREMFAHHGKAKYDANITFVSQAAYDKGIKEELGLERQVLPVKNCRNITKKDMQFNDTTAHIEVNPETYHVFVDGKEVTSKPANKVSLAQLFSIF
T1 sequence (P14916 whole entry, further chain): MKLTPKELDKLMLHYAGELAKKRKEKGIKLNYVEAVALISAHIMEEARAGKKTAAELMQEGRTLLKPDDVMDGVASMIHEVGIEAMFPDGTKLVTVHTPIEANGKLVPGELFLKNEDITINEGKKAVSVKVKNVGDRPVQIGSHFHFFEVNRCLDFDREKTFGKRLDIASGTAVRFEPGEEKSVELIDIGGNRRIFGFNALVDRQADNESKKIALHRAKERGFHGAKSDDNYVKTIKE

The term Ki denotes a dissociation constant, usually derived from enzyme kinetics or from competition with a known ligand. High values mean weaker binding, low ones tighter binding. In assay [1], `OCCS` [BME, β-mercaptoethanol] displayed a Ki of 435 µM.

For `Cc1cc(C)cc(-n2ccnc2SCC(=O)NO)c1` [SHA, 2-{[1-(3,5-dimethylphenyl)-1H-imidazol-2-yl]sulfanyl}-N-hydroxyacetamide], in assay [2], the Ki came out at 0.63 µM.
